From US20240067651A1 (Biohaven Therapeutics Ltd., priority 2019, published 2024)

Legend:
[1] = Plasma Stability; type: in vitro ADME, human
In short: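 Compounds incubated at 1 μM in fresh human plasma for 1 hour at 37° C, then protein-precipitated with acetonitrile/formic acid containing internal standard. Remaining parent measured by LC-MS/MS in triplicate, expressed as percent of control remaining.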

[2] = Stability in Simulated Gastric Fluid (SGF); type: in vitro ADME; design: key: % parent compound remaining relative to 0-minute sample
In short: (§1)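 Compound at 2 μg/mL final was incubated at 37 °C with shaking in SGF with pepsin (pH 1.2) or SIF with pancreatin (pH 6.8), sampled from 0 to 60 min. After acetonitrile precipitation, LC-MS/MS gave % parent remaining vs 0 min; half-life came from ln(% remaining) vs time.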

[3] = Caco-2 Permeability Assay; type: in vitro ADME, human; details: human
In short: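 Caco-2 monolayers cultured 21 days (TEER >600 […]); test article at 10 μM in HBSS/HEPES pH 7.4 transport medium, dosed apical or basolateral, ±Pgp inhibitor. Incubated 90 min at 37 °C; both compartments quantified by LC-MS/MS. Papp (A→B, B→A), efflux ratio and % recovery calculated.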

[4] = Stability in Simulated Intestinal Fluid (SIF); type: in vitro ADME; design: key: % parent compound remaining relative to 0-minute sample
In short: as §1

[5] = simulated gastric fluid, at 1 h
[6] = Caco-2, pH 7.4, Caco-2 monolayer
[7] = simulated intestinal fluid, at 1 h
[8] = simulated gastric fluid, after 1 h
[9] = simulated intestinal fluid, after 1 h
[10] = simulated intestinal fluid, @ 1 h

Compound	human Plasma stability ([1]; human plasma, at 1 h) [% remaining]	SGF [2, 5] [% remaining]	Papp at 90 min, 10 µM [3, 6] [×10⁻⁶ cm/s]	SIF [4, 7]	other results
CC(C)OCCn1c(SCOC(=O)N(C)c2ccccc2Cl)nc(=O)c2[nH]ccc21 [Example 240]	83	99	15.4	97% remaining	
COc1ccc(N(C)C(=O)OCSc2nc(=O)c3[nH]ccc3n2CCOC(C)C)cc1 [Example 241]	100	57	10.5	97% remaining	
Cc1ccccc1N(C)C(=O)OCSc1nc(=O)c2[nH]ccc2n1CCOC(C)C [Example 242]	81	52	15.6	96% remaining	
Cc1ccccc1N(C)C(=O)OCSc1nc(=O)c2c(ccn2COC(=O)N(C)c2ccccc2C)n1CCOC(C)C [Example 243]	99	88	31.4	99% remaining	
Cc1ccccc1N(C)C(=O)OCn1c(=O)c2c(ccn2COC(=O)N(C)c2ccccc2C)n(CCOC(C)C)c1=S [Example 244]	52	98	7.47	99% remaining	
Cc1cccc(N(C)C(=O)OCSc2nc(=O)c3[nH]ccc3n2CCOC(C)C)c1 [Example 245]	63	99	21.6	99% remaining	
Cc1cccc(N(C)C(=O)OCSc2nc(=O)c3c(ccn3COC(=O)N(C)c3cccc(C)c3)n2CCOC(C)C)c1 [Example 246]	99	98	21.7	99% remaining	
Cc1cccc(N(C)C(=O)OCn2c(=O)c3c(ccn3COC(=O)N(C)c3cccc(C)c3)n(CCOC(C)C)c2=S)c1 [Example 247]	31	64	3.99	81% remaining	
Cc1ccc(N(C)C(=O)OCSc2nc(=O)c3[nH]ccc3n2CCOC(C)C)cc1 [Example 248]	96	99	23.5	98% remaining	
CC(C)OCCn1c(SCOC(=O)N(C)c2ccccc2Cl)nc(=O)c2c1ccn2COC(=O)N(C)c1ccccc1Cl [Example 249]	98	89	28.4	95% remaining	
CC(C)OCCn1c(=S)[nH]c(=O)c2c1ccn2COC(=O)CCCCCCCCCCCCCCC(=O)O [Example 255, 16-oxo-16-({4-oxo-1-[2-(propan-2-yloxy)ethyl]-2-sulfanylidene-1H,2H,3H,4H,5H-pyrrolo[3,2-d]pyrimidin-5-yl}methoxy)hexadecanoic acid]					human Plasma stability ([1]; % remaining at 1 h, human plasma, 1 μM, 37° C.): 76%; SGF ([2]; % remaining at 1 h, SGF with pepsin pH 1.2, 2 μg/mL, 37° C.): 95%; Papp at 90 min, 10 µM ([3]; Caco-2, pH 7.4, donor 10 μM, 90 minutes, 37° C., direction not given): 2.72 ×10⁻⁶ cm/s; SIF ([4]; % remaining at 1 h, SIF with pancreatin pH 6.8, 2 μg/mL, 37° C.): 2%
CC(C)OCCn1c(=S)[nH]c(=O)c2c1ccn2COC(=O)CCCCCCCCCCCCCCC(=O)OC(C)C [Example 256]			0.25		human Plasma stability ([1]; human plasma, after 1 h): 88% remaining; SGF [2, 8]: 99% remaining; SIF [4, 9]: 9% remaining
CC(C)OCCn1c(=S)n(COC(=O)CNC(=O)OC(C)(C)C)c(=O)c2c1ccn2COC(=O)CNC(=O)OC(C)(C)C [Example 283]			5.78		human Plasma stability ([1]; human plasma, @ 1 h): 26% @ 1 h; SGF ([2]; simulated gastric fluid, @ 1 h): 82% @ 1 h; SIF [4, 10]: 1% @ 1 h
CC(C)OCCn1c(=S)n(COC(=O)[C@H](C)N)c(=O)c2c1ccn2COC(=O)[C@H](C)N.O=C(O)C(F)(F)F.O=C(O)C(F)(F)F [Example 289, bis(trifluoroacetic acid) [3-({[(2S)-2-aminopropanoyl]oxy}methyl)-4-oxo-1-[2-(propan-2-yloxy)ethyl]-2-sulfanylidene-1H,2H,3H,4H,5H-pyrrolo[3,2-d]pyrimidin-5-yl]methyl (2S)-2-aminopropanoate]					human Plasma stability ([1]; % remaining @ 1 h): 39% @ 1 h; SGF ([2]; % remaining @ 1 h): 100% @ 1 h; Papp at 90 min, 10 µM ([3]; Caco-2, pH 7.4): < 0.366 ×10⁻⁶ cm/s; SIF ([4]; % remaining @ 1 h): 97% @ 1 h
CC(C)OCCn1c(=S)[nH]c(=O)c2c1ccn2COC(=O)[C@@H](C)N.O=C(O)C(F)(F)F [Example 292, trifluoroacetic acid {4-oxo-1-[2-(propan-2-yloxy)ethyl]-2-sulfanylidene-1H,2H,3H,4H,5H-pyrrolo[3,2-d]pyrimidin-5-yl}methyl (2R)-2-aminopropanoate]					human Plasma stability ([1]; % remaining @ 1 h): 20% @ 1 h; SGF ([2]; % remaining @ 1 h): 99% @ 1 h; Papp at 90 min, 10 µM ([3]; Caco-2, pH 7.4): < 1.06 ×10⁻⁶ cm/s; SIF ([4]; % remaining @ 1 h): 7% @ 1 h
CC(C)OCCn1c(=S)n(COC(=O)[C@@H](C)N)c(=O)c2c1ccn2COC(=O)[C@@H](C)N.O=C(O)C(F)(F)F.O=C(O)C(F)(F)F [Example 293, bis(trifluoroacetic acid) [3-({[(2R)-2-aminopropanoyl]oxy}methyl)-4-oxo-1-[2-(propan-2-yloxy)ethyl]-2-sulfanylidene-1H,2H,3H,4H,5H-pyrrolo[3,2-d]pyrimidin-5-yl]methyl (2R)-2-aminopropanoate]					human Plasma stability ([1]; % remaining @ 1 h): 25% @ 1 h; SGF ([2]; % remaining @ 1 h): 100% @ 1 h; Papp at 90 min, 10 µM ([3]; Caco-2, pH 7.4): < 1.06 ×10⁻⁶ cm/s; SIF ([4]; % remaining @ 1 h): 29% @ 1 h
CC(C)OCCn1c(=S)[nH]c(=O)c2c1ccn2COC(=O)[C@@H](NC(=O)OC(C)(C)C)C(C)C [Example 294, {4-oxo-1-[2-(propan-2-yloxy)ethyl]-2-sulfanylidene-1H,2H,3H,4H,5H-pyrrolo[3,2-d]pyrimidin-5-yl}methyl (2S)-2-{[(tert-butoxy)carbonyl]amino}-3-methylbutanoate]					human Plasma stability ([1]; % remaining @ 1 h): 98% @ 1 h; SGF ([2]; % remaining @ 1 h): 98% @ 1 h; Papp at 90 min, 10 µM ([3]; Caco-2, pH 7.4): 26.8 ×10⁻⁶ cm/s; SIF ([4]; % remaining @ 1 h): 3% @ 1 h
CC(C)OCCn1c(SCOC(=O)[C@@H](NC(=O)OC(C)(C)C)C(C)C)nc(=O)c2c1ccn2COC(=O)[C@@H](NC(=O)OC(C)(C)C)C(C)C [Example 295, {[5-({[(2S)-2-{[(tert-butoxy)carbonyl]amino}-3-methylbutanoyl]oxy}methyl)-4-oxo-1-[2-(propan-2-yloxy)ethyl]-1H,4H,5H-pyrrolo[3,2-d]pyrimidin-2-yl]sulfanyl}methyl (2S)-2-{[(tert-butoxy)carbonyl]amino}-3-methylbutanoate]					human Plasma stability ([1]; % remaining @ 1 h): 81% @ 1 h; SGF ([2]; % remaining @ 1 h): 58% @ 1 h; Papp at 90 min, 10 µM ([3]; Caco-2, pH 7.4): 17 ×10⁻⁶ cm/s; SIF ([4]; % remaining @ 1 h): 0% @ 1 h

The next lines start with results.

human Plasma stability ([1]; human plasma, at 1 h) [% remaining]	SGF [2, 5] [% remaining]	Papp at 90 min, 10 µM [3, 6] [×10⁻⁶ cm/s]	SIF [4, 7]	Compound	other results
2	98	0.256	3% remaining	CC(C)COC(=O)n1ccc2c1c(=O)[nH]c(=S)n2CCOC(C)C [Example 232]	
2	98	0.314	70% remaining	COC(=O)n1ccc2c1c(=O)[nH]c(=S)n2CCOC(C)C [Example 233]	
2	34	< 0.33	8% remaining	CC(C)OCCn1c(=S)[nH]c(=O)c2c1ccn2COC(=O)Oc1cccc(F)c1 [Example 234]	
2	60	< 0.369	1% remaining at	CC(C)OCCn1c(=S)[nH]c(=O)c2c1ccn2COC(=O)Oc1ccc(F)cc1 [Example 235]	
1	53	0.59	1% remaining at	Cc1ccc(OC(=O)OCn2ccc3c2c(=O)[nH]c(=S)n3CCOC(C)C)cc1 [Example 236]	
1	74	0.723	2% remaining	Cc1cccc(OC(=O)OCn2ccc3c2c(=O)[nH]c(=S)n3CCOC(C)C)c1 [Example 237]	
1	13	< 0.339	1% remaining	CC(C)OCCn1c(=S)[nH]c(=O)c2c1ccn2COC(=O)Oc1ccccc1F [Example 238]	
85	99	11.7	96% remaining	CC(C)OCCn1c(SCOC(=O)N(C)c2ccccc2F)nc(=O)c2[nH]ccc21 [Example 239]	
		11.7		CC(C)OCCn1c(=S)[nH]c(=O)c2c1ccn2COC(=O)CCCCCCCCCCC(=O)O [Example 261]	human Plasma stability ([1]; human plasma, after 1 h): 94% remaining; SGF [2, 8]: 99% remaining; SIF [4, 9]: 2% remaining
		< 0.214		CC(C)OCCn1c(=S)[nH]c(=O)c2c1ccn2COC(=O)CCCCCCCCCCC(=O)OC(C)C [Example 262]	human Plasma stability ([1]; human plasma, after 1 h): 41% remaining; SGF [2, 8]: 92% remaining; SIF [4, 9]: 2% remaining
		1.55		CC(C)OCCn1c(=S)[nH]c(=O)c2c1ccn2COC(=O)CN [Example 284]	human Plasma stability ([1]; human plasma, @ 1 h): 0% @ 1 h; SGF ([2]; simulated gastric fluid, @ 1 h): 100% @ 1 h; SIF [4, 10]: 6% @ 1 h
